Data set [1] is described as follows: Brain homogenate binding (unbound fraction by ultracentrifugation). It counts as in vitro ADME. On the procedure:
(§1) Unbound fractions in brain homogenate and plasma were determined by ultracentrifugation as described previously. Briefly, drug-spiked matrices (5 μM drug in plasma or brain homogenate) were centrifuged at 600,000 g for 5 h at 37 °C (plasma) or 5 °C (brain). Aliquots of the middle (water) layer were added to an equal volume of blank matrix and extracted with 5 volumes of acetonitrile containing internal standard. Aliquots of the original spiked matrix were mixed with an equal volume of blank matrix and 2 volumes of plasma ultrafiltrate (plasma) or phosphate-buffered saline (tissue) and extracted with 10 volumes of acetonitrile. Extracts were centrifuged and analyzed by LC-MS-MS. Fraction unbound was calculated from the ratio of concentration in the water layer to that in the original spiked matrix, corrected for dilution as described previously. Based on previous results for basic drugs, in vivo free fraction in brain was assumed to be at least 3-fold lower than the in vitro free fraction in brain homogenate.

Data set [2] is described as follows: Plasma binding (unbound fraction by ultracentrifugation). As to conditions: 5 μM drug, mean, n = 3. The data set is classed as in vitro ADME. On the procedure:
as §1, with “previously.” for “previously. Based on previous results for basic drugs, in vivo free fraction in brain was assumed to be at least 3-fold lower than the in vitro free fraction in brain homogenate.”

The target in the next data set is T1, P-gp (human MDR1) (Homo sapiens, UniProt P08183).
T1 construct: expressed in transfected cells; host or cells: LLC-PK1 (pig kidney epithelial cells) transfected with human MDR1 at Amgen
T1 sequence (P08183 whole entry): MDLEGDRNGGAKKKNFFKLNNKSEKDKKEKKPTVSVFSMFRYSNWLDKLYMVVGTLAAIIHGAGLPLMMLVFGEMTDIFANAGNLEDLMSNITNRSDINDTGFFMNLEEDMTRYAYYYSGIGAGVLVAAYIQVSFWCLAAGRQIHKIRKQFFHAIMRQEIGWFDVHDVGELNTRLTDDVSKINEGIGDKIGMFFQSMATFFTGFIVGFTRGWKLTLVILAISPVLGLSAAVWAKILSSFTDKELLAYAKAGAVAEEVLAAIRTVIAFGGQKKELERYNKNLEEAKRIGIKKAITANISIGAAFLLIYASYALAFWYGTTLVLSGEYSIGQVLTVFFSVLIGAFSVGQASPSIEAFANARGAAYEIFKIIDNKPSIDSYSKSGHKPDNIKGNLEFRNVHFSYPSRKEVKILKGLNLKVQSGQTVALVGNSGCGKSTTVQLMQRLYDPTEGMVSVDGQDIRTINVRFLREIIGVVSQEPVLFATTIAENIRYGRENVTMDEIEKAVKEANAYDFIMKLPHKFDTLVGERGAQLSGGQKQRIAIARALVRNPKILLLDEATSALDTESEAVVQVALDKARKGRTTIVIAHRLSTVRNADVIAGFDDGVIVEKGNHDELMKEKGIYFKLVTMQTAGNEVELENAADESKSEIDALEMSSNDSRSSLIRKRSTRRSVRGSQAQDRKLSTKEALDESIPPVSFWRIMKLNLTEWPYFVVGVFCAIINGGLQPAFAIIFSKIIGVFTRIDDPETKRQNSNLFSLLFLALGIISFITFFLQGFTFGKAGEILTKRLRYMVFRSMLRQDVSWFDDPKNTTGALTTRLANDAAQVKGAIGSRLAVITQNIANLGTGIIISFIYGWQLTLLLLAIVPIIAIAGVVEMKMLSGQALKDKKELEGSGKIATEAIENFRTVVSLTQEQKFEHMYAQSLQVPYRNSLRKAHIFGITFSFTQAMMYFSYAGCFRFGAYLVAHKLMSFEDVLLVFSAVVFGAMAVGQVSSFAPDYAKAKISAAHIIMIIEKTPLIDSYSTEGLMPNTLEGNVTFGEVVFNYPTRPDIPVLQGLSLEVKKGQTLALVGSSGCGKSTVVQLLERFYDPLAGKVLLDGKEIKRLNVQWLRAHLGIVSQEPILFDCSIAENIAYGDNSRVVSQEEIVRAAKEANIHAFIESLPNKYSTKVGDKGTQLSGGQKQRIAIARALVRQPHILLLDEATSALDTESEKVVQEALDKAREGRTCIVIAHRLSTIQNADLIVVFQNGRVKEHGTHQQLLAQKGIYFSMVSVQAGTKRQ
Put plainly: LLC-PK1-MDR1 cell permeation and efflux. It counts as in vitro ADME. The note with it: for Papp A→B at 120 min, 5 μM / Papp B→A at 120 min, 5 μM: pig (LLC-PK1 cells) transfected with human MDR1, LLC-PK1, 0.1% BSA, n = 2; for Papp A→B at 120 min, 5 μM: apical to basolateral; for Papp B→A at 120 min, 5 μM: basolateral to apical; for efflux ratio at 120 min, 5 μM: pig (LLC-PK1 cells) transfected with human MDR1, LLC-PK1-MDR1 monolayers, read-out: Efflux ratio (B → A/A → B). As for the experimental part:
(§2) Pig kidney epithelial cells (LLC-PK1) were obtained from American Type Culture Collection (Manassas, VA). Transfection with human MDR1 gene was conducted at Amgen (Thousand Oaks, CA). Bi-directional permeation assays were performed as described previously. […] Cells were seeded onto Transwell filter membranes (0.4 μm pore size, surface area = 0.7 cm2) at a density of 200,000 cells/well. Compound incubations (in duplicate) were performed 5 days post-seeding. To determine efflux, compounds were tested at 5 μM in the presence of 0.1% BSA. […] Samples were analyzed by LC-MS-MS.

Another data set addresses T2, human P-gp (Homo sapiens, UniProt P08183).
T2 construct: expressed in transfected cells; host or cells: LLC-PK1 (pig kidney epithelial cells) transfected with human MDR1 at Amgen
Put plainly: LLC-PK1-MDR1 cell permeation and efflux. As to conditions: cells expressing human P-gp. The data set is classed as in vitro ADME. As for the experimental part:
as §2

Data set [3] can be described thus: Octanol-buffer distribution (log D7.4). The data set is classed as physicochemical. As to conditions: for logD / logD at 1 min / logD at 10 min / logD at 30 min: 1-octanol/PBS; for logD: pH 7.4, pooled mixing times 1, 10, 30 min; for logD at 1 min: mixing time 1 min; for logD at 1 min / logD at 10 min / logD at 30 min: octanol/PBS pH 7.4; for logD at 10 min: mixing time 10 min; for logD at 30 min: mixing time 30 min. On the procedure: Phosphate-buffered saline (PBS, pH 7.4) and 1-octanol were mutually saturated by vigorous stirring at room temperature for 18 h, and then separated. Drug solutions of 0.1 mg mL^-1 in PBS were prepared, and 500 μL aliquots were added to 1.5 mL micro-centrifuge tubes with an equal volume of 1-octanol. Three samples were vortex-mixed for 1, 10 and 30 minutes respectively, then centrifuged at room temperature (12,000 rpm for 15 minutes). Aliquots of the upper octanol layer were removed by pipette. A disposable syringe was inserted while bubbling air through the upper layer, an aliquot of the lower PBS layer withdrawn, and the needle removed before transferring. Samples were stored in glass sample vials at −20 °C until analysis by LC-MS-MS.
Drug concentrations (ng mL^-1) refer to the free base, and were measured by liquid chromatography-tandem mass spectrometry (LC-MS-MS) as described previously. Briefly, samples were shaken with 3 volumes of methanol and centrifuged at 3000 g. Aliquots of the supernatants were diluted with 5 volumes of water containing an appropriate internal standard. Extracts from in vitro and in vivo experiments were analyzed by multiple reaction monitoring on an API3000 or API4000 LC-MS-MS system with electrospray ion source, controlled and analyzed using the Analyst software package (Applied Biosystems, Foster City, CA). Chromatography was conducted on a Sprite Armor C18 analytical column (20 × 2.1 mm, 10 μm particle size, Analytical Sales and Products, Pompton Plains, NJ) with a 0.5 μm PEEK guard filter. Compounds were eluted with a gradient from 2% to 95% acetonitrile in water, both containing 0.1% formic acid. Compounds were detected in positive ion mode, tuned to the mass transition with the largest intensity. Analyte concentrations were determined by comparison of analyte:internal standard peak area ratios to those of standards prepared in the appropriate matrices.

Where [4] appears, read: 5 μM drug, mean, n = 3, corrected for dilution, read-out: Fraction unbound, Brain homogenate.
The mark [5] stands for this setting: Brain homogenate, read-out: % free (uncorrected).

“Also recorded” adds a separate entry of the source. Bounds are passed on as bounds.

T2 sequence (P08183 whole entry): as above

As usually defined, the Papp A→B is how fast a substance crosses the layer from the apical side. What is called Papp B→A is how fast a substance crosses the layer from the basolateral side. A word on the logD: it is lipophilicity at a set pH, counting ionised and neutral species. Consider `N=C(N)Nc1ccc2[nH]c3c(c2c1)C[C@@]1(O)[C@H]2Cc4ccc(O)c5c4[C@@]1(CCN2CC1CC1)[C@H]3O5` [GNTI, 5’-guanidinonaltrindole], for which, in data set [1] (setting [4]), the fraction unbound at 5 h, 5 μM turned out to be 0.07. Further, in data set [1] (setting [5]), the fraction unbound at 5 h, 5 μM was 0.19. In data set [2], this compound displayed a fraction unbound at 5 h, 5 μM of 0.28. Further, at P-gp (human MDR1), the apparent permeability from apical to basolateral (Papp A→B) at 120 min, 5 μM came out at 0.4 ×10⁻⁶ cm/s; the Papp B→A at 120 min, 5 μM came out at 0.6 ×10⁻⁶ cm/s; the efflux ratio at 120 min, 5 μM amounted to 1.5. The “Active transport / P-gp-mediated efflux” value at human P-gp is given as “did not; also recorded: No active transport”. In data set [3], the log distribution coefficient (logD) was -0.08, the logD at 1 min is -0.07, the logD at 10 min was -0.11 and the log distribution coefficient (logD) at 30 min is -0.0527. Further, the “Log10D7.4 octanol:buffer (pH 7.4)” value in data set [3] (mean, n = 3) is -0.1.

For the compound `CC(C)[C@@H](CN1CC[C@@](C)(c2cccc(O)c2)[C@@H](C)C1)NC(=O)[C@H]1Cc2ccc(O)cc2CN1` [JDTic, (3R)-7-Hydroxy-N-((1S)-1-{[(3R,4R)-4-(3-hydroxyphenyl)-3,4-dimethyl-1-piperidinyl]methyl}-2-methylpropyl)-1,2,3,4-tetrahydro-3-isoquinolinecarboxamide], the fraction unbound at 5 h, 5 μM in data set [1] (setting [4]) turned out to be 0.07. Also, the fraction unbound at 5 h, 5 μM in data set [1] (setting [5]) turned out to be 0.18. In addition, the fraction unbound at 5 h, 5 μM in data set [1] (assumed at least 3-fold lower than in homogenate, read-out: Fu,brain (in vivo est.)) was less than 0.0233. This compound also showed a fraction unbound at 5 h, 5 μM in data set [2] of 0.19. In addition, at P-gp (human MDR1), the Papp A→B at 120 min, 5 μM came to 0.5 ×10⁻⁶ cm/s; the basolateral-to-apical permeability (Papp B→A) at 120 min, 5 μM came to 24 ×10⁻⁶ cm/s; the efflux ratio at 120 min, 5 μM was 48. Moreover, the “Active transport / P-gp-mediated efflux” value on human P-gp is on record as “showed P-gp-mediated efflux; also recorded: very high efflux ratio”. Moreover, in data set [3], the logD was 1.84, the pH-dependent lipophilicity (logD) at 1 min is 1.84, the logD at 10 min stood at 1.9 and the logD at 30 min is 1.77.

With `Oc1ccc2c3c1O[C@H]1c4[nH]c5c(c4C[C@@]4(O)[C@@H](C2)N(CC2CC2)CC[C@]314)C[C@@]1(O)[C@H]2Cc3ccc(O)c4c3[C@@]1(CCN2CC1CC1)[C@H]5O4` [nor-BNI, norbinaltorphimine], the fraction unbound at 5 h, 5 μM in data set [1] (setting [4]) came out at 0.12. Further, the fraction unbound at 5 h, 5 μM in data set [1] (setting [5]) was found to be 0.28. In data set [1] (mouse, assumed at least 3-fold lower than in homogenate, read-out: Fu,brain (in vivo est.)), the fraction unbound at 5 h, 5 μM is less than 0.04. In addition, the fraction unbound at 5 h, 5 μM in data set [2] amounted to 0.51. For the same compound, at P-gp (human MDR1), the apical-to-basolateral permeability (Papp A→B) at 120 min, 5 μM turned out to be 0.2 ×10⁻⁶ cm/s and the Papp B→A at 120 min, 5 μM is 0.3 ×10⁻⁶ cm/s. Besides, the “Active transport / P-gp-mediated efflux” value on human P-gp was “did not; also recorded: No active transport”. In data set [3], the logD was 1.53, the logD at 1 min was determined as 1.43, the pH-dependent lipophilicity (logD) at 10 min was determined as 1.59 and the logD at 30 min is 1.57.

The record behind these values is PMC3411462, “Long-acting κ opioid antagonists nor-BNI, GNTI and JDTic: pharmacokinetics in mice and lipophilicity” (BMC Pharmacology, 2012).
